{"source": "patent US20080090749A1", "about": "(priority 2005, published 2008)", "key": {"[1]": {"system": "ulcerative damage of the intestine", "conditions": "reported; cited from earlier work"}, "cholera toxin": {"system": "cholera toxin", "conditions": "cited from earlier work"}, "Noradrenaline": {"system": "Noradrenaline", "assay": "Noradrenaline content in the large intestine of stress-loaded rats by LC/MS", "type": "in vivo, Wistar rats", "conditions": "Stress+ His diet+; day 17; N = 8", "protocol": "(§1) After being preliminarily reared on an ordinary diet (CRF-1, Charles River Japan Inc.) for 1 week, Wistar rats (4 weeks of age, male) were fed an ordinary diet (control group) or a histidine diet prepared by mixing finely milled L-histidine hydrochloride at 2% by weight in the ordinary diet (histidine dosing group) for 2 weeks. In the mornings of day 15, day 16, and day 17 after the start of the rearing with the histidine diet, stress loading was performed by the method described below, and the feces excreted by the rats were examined for weight and description.\n(§2) The large intestines of stress-loaded rats were collected and frozen in liquid nitrogen on day 17, and stored at −80° C. until use. Extracted from the frozen samples by the following protocol were noradrenaline, histamine, serotonin and 3-methylhistidine, which were then quantified by LC/MS.\n(§3) Each frozen rat tissue (large intestine) stored at −80° C. as disrupted using CryoPress (manufactured by Microtec Co., Ltd.), and 1 mL of methanol per 100 mg at −80° C. was added. The mixture was disrupted using FastPrep (30 sec×2 times), and 0.8 mL of the disruption liquid was recovered. 1 mL of cold chloroform was added thereto, and the mixture was stirred using Vortex for 1 minute, after which 1 mL of cold H2O was added. After the mixture was further stirred using Vortex for 1 minute, it was allowed to stand for 30 minutes. […]"}, "[2]": {"system": "diarrhea under stress loading using a stress cage", "assay": "Stress loading using a stress cage, histidine diet (Example 1), fecal examination", "type": "in vivo, Wistar rats", "conditions": "for Number of individuals with diarrhea / Number of individuals with soft feces / Number of individuals without diarrhea or soft feces: 8 individuals examined", "protocol": "as §1\nAfter being allowed to stand in a small individual cage (13.5×27×12 cm) for about 2 hours, each rat was transferred to a constraint (stress) cage having a size such that the rat cannot move (5×17×4 cm), and further allowed to stand for 2 hours, whereby stress loading was performed (control stress group, histidine dosing stress group). The feces excreted by the rat were examined for description, number, and weight. The stress loading and fecal examination were performed on each individual for three consecutive days.\n(§4) Eight rats were used for each group."}, "Serotonin": {"system": "Serotonin", "assay": "Serotonin content in the large intestine of stress-loaded rats by LC/MS", "type": "in vivo, Wistar rats", "protocol": "as §1, §2, §3"}, "[3]": {"system": "diarrhea due to stress loading using a stress cage", "assay": "Stress loading using a stress cage, histidine bolus oral administration (Example 2), fecal examination", "type": "in vivo, Wistar rats", "protocol": "After being preliminarily reared on an ordinary diet (CRF-1, Charles River Japan Inc.) for 1 week, Wistar rats (6 weeks of age, male) received histidine given by gavage at a frequency of twice a day (morning and evening) on day 8 and day 9 after the start of the preliminary rearing. A 5 mL dosing volume of 0.5% methylcellulose solution (control solution) for the control group, or a solution of L-histidine hydrochloride dissolved (partially suspended) in 0.5% methylcellulose solution to a content ratio of 1.5 g per kg body weight of each rat for the histidine dosing group, was orally administered using a sonde. Stress loading was performed using a stress cage in the same manner as Example 1. That is, after each rat was transferred to a small individual cage (13.5×27×12 cm) in the morning of day 10, and allowed to stand for 2 hours, the same histidine solution or control solution as those given on the previous day were once orally administered. After being allowed to stand in a small individual cage for 2 hours, each rat was transferred to a constraint cage (5×17×4 cm) and allowed to stand for 1 hour, whereby stress loading was performed. The feces excreted by the rat were examined for description, number, and weight.\nas §4"}, "Histamine": {"system": "Histamine", "assay": "Histamine content in the large intestine of stress-loaded rats by LC/MS", "type": "in vivo, Wistar rats", "protocol": "as §1, §2, §3"}, "3-methylhistidine": {"system": "3-methylhistidine", "assay": "3-methylhistidine content in the large intestine of stress-loaded rats by LC/MS (index for proteolysis)", "type": "in vivo, Wistar rats", "protocol": "as §1, §2, §3"}, "[4]": {"system": "soft feces due to stress loading by front leg constraint", "assay": "Stress loading by front leg constraint, histidine oral administration (Example 3), fecal examination", "type": "in vivo, Wistar rats", "protocol": "After being preliminarily reared on an ordinary diet (CRF-1, Charles River Japan Inc.) for 1 week, Wistar rats (6 weeks of age, male) received histidine given by gavage at a frequency of twice a day (morning and evening) on day 8 and day 9 as described above. A 5 mL dosing volume of 0.5% methylcellulose solution (control solution) for the control group, or a solution of L-histidine hydrochloride dissolved (partially suspended) in 0.5% methylcellulose solution to a content ratio of 1.5 g per kg body weight of each rat for the histidine dosing group, was orally administered using a sonde.\nIn the morning of day 10, the same histidine solution or control solution as those given on the previous day was once orally administered. One hour later, under low-dose ether anesthesia, stress loading was performed by constraining the front legs with a tape of the Scotch brand. After each animal was allowed to stand for 1 hour in an individual cage, the feces excreted by the rat were examined for description, number, and weight.\nas §4"}, "[5]": {"conditions": "individual rats, 2% L-histidine hydrochloride diet, stress cage, stress day 1, hydrochloride"}, "[6]": {"conditions": "individual rats, 2% L-histidine hydrochloride diet, stress cage, stress day 2, hydrochloride"}, "[7]": {"conditions": "individual rats, 2% L-histidine hydrochloride diet, stress cage, stress day 3, hydrochloride"}, "[8]": {"conditions": "stress loading Day 1, histidine diet"}, "[9]": {"conditions": "stress loading Day 2, histidine diet"}, "[10]": {"conditions": "stress loading Day 3, histidine diet"}, "[11]": {"conditions": "Stress+ His diet+, day 17, N = 8"}, "[12]": {"conditions": "8 individuals examined, histidine bolus oral administration"}, "[13]": {"conditions": "group mean, 8 rats, 1.5 g per kg oral, stress cage 1 hour"}, "[14]": {"conditions": "individual rats, 1.5 g per kg oral, stress cage 1 hour, hydrochloride"}, "[15]": {"conditions": "individual rats, 1.5 g per kg oral, front leg constraint 1 hour, hydrochloride"}}, "note": "Values joined by “and” are separate entries in the source; they are usually repeats but may differ in a detail not shown here. Equal values may be shown once.", "data": [{"smiles": "Cl.N[C@@H](Cc1c[nH]cn1)C(=O)O", "note": "[Histidine, L-histidine hydrochloride]", "values": [{"measurement": "effect on ulcerative damage of the intestine by infectious microorganisms and drugs", "setting": "[1]", "value": "Mitigates"}, {"measurement": "action on the gut water secretion by cholera toxin", "setting": "cholera toxin", "value": "suppressive action"}, {"measurement": "Noradrenaline content in the large intestine (Tissue wet weight)", "setting": "Noradrenaline", "value": 0.96, "unit": "nmol/g"}, {"measurement": "effect of histidine administration on diarrhea", "setting": "[2]; histidine diet, stress cage, compared to the control group", "value": "suppressive effect"}, {"measurement": "Number of feces Day 1 normal feces", "setting": "[2]; individual rats, 2% L-histidine hydrochloride diet 2 weeks, stress cage 2 hours, stress day 1, hydrochloride", "value": "6 and 3 (2×) and 1 and 11 and 10 and 5 and 0"}, {"measurement": "Fecal weight Total weight Day 1", "setting": "[2]; [5]", "value": "1.01 g and 1.65 g and 1.94 g and 2.23 g and 2.82 g and 2.46 g and 1.77 g and 0.00 g"}, {"measurement": "Number of feces Day 1 diarrhea", "setting": "[2]; [5]", "value": "0 (7×) and 1"}, {"measurement": "Number of feces Day 1 soft feces", "setting": "[2]; [5]", "value": "0 (3×) and 1 (2×) and 3 (3×)"}, {"measurement": "Fecal weight Total weight Day 2", "setting": "[2]; [6]", "value": "0.58 g and 0.56 g and 4.02 g and 2.38 g and 0.25 g and 3.48 g and 1.28 g and 1.26 g"}, {"measurement": "Number of feces Day 2 diarrhea", "setting": "[2]; [6]", "value": "0 (7×) and 2"}, {"measurement": "Number of feces Day 2 normal feces", "setting": "[2]; [6]", "value": "4 and 2 and 10 and 8 and 3 and 5 and 6 (2×)"}, {"measurement": "Number of feces Day 2 soft feces", "setting": "[2]; [6]", "value": "0 (4×) and 3 and 2 and 5 and 1"}, {"measurement": "Fecal weight Total weight Day 3", "setting": "[2]; [7]", "value": "1.15 g and 0.46 g and 3.27 g and 1.00 g and 2.22 g and 3.99 g and 1.64 g and 0.41 g"}, {"measurement": "Number of feces Day 3 diarrhea", "setting": "[2]; [7]", "value": "0 (7×) and 1"}, {"measurement": "Number of feces Day 3 normal feces", "setting": "[2]; [7]", "value": "6 (5×) and 1 and 4 and 3"}, {"measurement": "Number of feces Day 3 soft feces", "setting": "[2]; [7]", "value": "0 (3×) and 1 (2×) and 4 (2×) and 5"}, {"measurement": "Number of individuals with diarrhea", "setting": "[2]; [8]", "value": 1}, {"measurement": "Number of individuals with soft feces", "setting": "[2]; [8]", "value": 5}, {"measurement": "Number of individuals without diarrhea or soft feces", "setting": "[2]; [8]", "value": 3}, {"measurement": "Number of individuals with diarrhea", "setting": "[2]; [9]", "value": 1}, {"measurement": "Number of individuals with soft feces", "setting": "[2]; [9]", "value": 4}, {"measurement": "Number of individuals without diarrhea or soft feces", "setting": "[2]; [9]", "value": 4}, {"measurement": "Number of individuals with diarrhea", "setting": "[2]; [10]", "value": 1}, {"measurement": "Number of individuals with soft feces", "setting": "[2]; [10]", "value": 5}, {"measurement": "Number of individuals without diarrhea or soft feces", "setting": "[2]; [10]", "value": 3}, {"measurement": "Serotonin content in the large intestine (Tissue wet weight)", "setting": "Serotonin; [11]", "value": 6.63, "unit": "nmol/g"}, {"measurement": "effect on increase of serotonin tissue content in the large intestine due to stress loading", "setting": "Serotonin; histidine diet", "value": "tended to be suppressed"}, {"measurement": "Number of individuals with diarrhea", "setting": "[3]; [12]", "value": 0}, {"measurement": "Number of individuals with soft feces", "setting": "[3]; [12]", "value": 8}, {"measurement": "Number of individuals without diarrhea or soft feces", "setting": "[3]; [12]", "value": 0}, {"measurement": "effect of histidine administration on diarrhea", "setting": "[3]; bolus oral administration, stress cage, compared to the control group", "value": "suppressive effect"}, {"measurement": "Number of normal feces, Mean", "setting": "[3]; [13]", "value": 0.125}, {"measurement": "Number of soft feces, Mean", "setting": "[3]; [13]", "value": 6}, {"measurement": "Total fecal weight, Mean", "setting": "[3]; [13]", "value": 1.64, "unit": "g"}, {"measurement": "Onset of diarrhea, individuals in group", "setting": "[3]; group of 8 rats, 1.5 g per kg oral, stress cage 1 hour", "value": 0, "unit": "individual"}, {"measurement": "Onset of diarrhea", "setting": "[3]; individual rats, 1.5 g per kg oral, stress cage 1 hour", "value": "none"}, {"measurement": "Number of normal feces", "setting": "[3]; [14]", "value": "0 (7×) and 1"}, {"measurement": "Number of soft feces", "setting": "[3]; [14]", "value": "12 and 8 and 3 and 5 and 6 (2×) and 4 (2×)"}, {"measurement": "Total fecal weight", "setting": "[3]; [14]", "value": "2.379 g and 2.7 g and 0.852 g and 2.077 g and 1.515 g and 1.975 g and 0.72 g and 0.94 g"}, {"measurement": "Histamine content in the large intestine (Tissue wet weight)", "setting": "Histamine; [11]", "value": 6.61, "unit": "nmol/g"}, {"measurement": "effect on increase of histamine tissue content in the large intestine due to stress loading", "setting": "Histamine; histidine diet", "value": "tended to be suppressed"}, {"measurement": "3-methylhistidine content in the large intestine (Tissue wet weight)", "setting": "3-methylhistidine; [11]", "value": 0.13, "unit": "nmol/g"}, {"measurement": "effect on increase of 3-methylhistidine with stress loading", "setting": "3-methylhistidine; histidine diet", "value": "suppressed"}, {"measurement": "Onset of diarrhea, group line", "setting": "[4]; Mean line of group, 8 rats", "value": 0}, {"measurement": "Mean number of normal feces", "setting": "[4]; Table 8, front leg constraint", "value": 0.88}, {"measurement": "Mean number of soft feces", "setting": "[4]; Table 8, front leg constraint", "value": 3.75}, {"measurement": "Total fecal weight, Mean", "setting": "[4]; group mean, 8 rats", "value": 1.68}, {"measurement": "Number of normal feces, Mean", "setting": "[4]; group mean, 8 rats, Table 7", "value": 0.88}, {"measurement": "Number of soft feces, Mean", "setting": "[4]; group mean, 8 rats, Table 7", "value": 3.75}, {"measurement": "Onset of diarrhea", "setting": "[4]; individual rats, 1.5 g per kg oral, front leg constraint 1 hour", "value": "none"}, {"measurement": "Number of normal feces", "setting": "[4]; [15]", "value": "4 and 2 and 0 (5×) and 1"}, {"measurement": "Number of soft feces", "setting": "[4]; [15]", "value": "5 (2×) and 2 (2×) and 0 and 6 (2×) and 4"}, {"measurement": "Total fecal weight", "setting": "[4]; [15]", "value": "2.12 and 0.73 and 1.03 and 0 and 2.18 and 2.47 and 2.63 and 2.31"}, {"measurement": "effect of histidine administration on diarrhea", "setting": "[4]; oral administration, front leg constraint, compared to the control group", "value": "suppressive effect"}]}]}
